Laboratory results reported in PubChem BioAssay AID179 (DTP/NCI, 2004).
Activity calls are given as the source filed them.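 How the source made its calls: active means compounds giving half or more protection of infected cells from virus-caused growth loss, again on retest; inactive means the rest.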

Tested on: CEM cells HIV-1 protection, formazan growth assay
Test: NCI AIDS Antiviral Assay
Settings: for IC50: measured here: growth of uninfected CEM cells
Procedure, shortened: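 Screen of anti-HIV-1 activity in human CEM cells using a formazan-based growth measurement at five drug concentrations. Hits with 50% or greater protection were repeated, and confirmation required reproducible complete protection.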

| Structure (SMILES) | EC50 [µM] | IC50 [µM] | outcome |
| --- | --- | --- | --- |
| Nc1ncnc2c1ncn2C1OC2CSCCC2(O)C1O (stereo unspecified) | > 200 | > 200 | – |
| S=C(Nc1ccccc1)Nc1ccccc1S | > 200 | 112 | – |
| O=C(/C=C/c1ccc2c(c1)OCO2)NCCc1ccco1 | > 200 | 126 | – |
| O=c1c(SCc2ccccc2Cl)c(SCc2ccccc2Cl)cnn1-c1ccccc1 | > 7.76 | 5.5 | – |
| CC(C)[C@@H]1CC[C@@H](C)C[C@H]1OC(=O)c1c2n(c3ccccc13)C[C@H]1OC(C)(C)O[C@@H]21 | > 100 | 77.6 | – |
| O=C1c2ccccc2C(=O)c2c1ccc1c3ccccc3n(-c3ccccc3)c21 | > 50.1 | 0.871 | – |
| COc1cccc2c(Nc3ccc(S(=O)(=O)Nc4ncccn4)cc3)c3ccc([N+](=O)[O-])cc3nc12 | > 100 | > 100 | – |
| Cc1cc(C#N)c(Nc2ccc(F)cc2[N+](=O)[O-])s1 | > 200 | > 200 | – |
| Cc1cn([C@H]2C(CO)[C@@H](CO)C2(C)C)c(=O)[nH]c1=O (stereo partly specified) | > 933 | > 933 | – |
| CC(NC(=O)/C(=C/c1ccccc1)NC(=O)c1ccccc1)C(=O)O (stereo unspecified) | > 200 | > 200 | – |
| Oc1ccc(C=NCC2CCCN3CCCCC23)cc1 (stereo unspecified) | > 200 | 33.1 | – |
| COc1ccc(/C(Cl)=C(\C=O)c2ccc(OC)c(OC)c2)cc1OC | > 251 | > 251 | – |
| C=C1CC2OC(=O)C(=C)C2C(O)C2C(=C)CCC12 (stereo unspecified) | – | – | inactive |
| O=C(CCCN1CCN(c2ccccn2)CC1)c1ccc(F)cc1 | > 132 | 72.4 | – |
| CC1(C)N=C(C(N)=O)c2ncn(Cc3ccccc3)c2N1 | > 200 | > 200 | – |
| C=C(OC1C(C)=C2C(C1OC(=O)CCCCCCC)C(C)(OC(C)=O)CC(OC(=O)CCC)C1(O)C2OC(=O)C1(C)O)/C(C)=C/C (stereo unspecified) | > 2 | 0.00282 | – |
| COc1cccc(C=O)c1[O-].COc1cccc(C=O)c1[O-].[Cu+2] | > 97.7 | 9.33 | – |

| Structure (SMILES) | EC50 [µM] | IC50 [µM] | outcome |
| --- | --- | --- | --- |
| CCN(CC)C(=O)c1c(Cl)cc(N(CC)CC)oc1=O | > 832 | > 832 | – |
| COc1ccc(N2C(=O)/C(=C/c3ccc(N(CCC#N)CCC#N)cc3C)N=C2c2cc([N+](=O)[O-])ccc2Cl)cc1 | > 12.6 | 3.02 | – |
| Cc1c(Cl)ccc2c(=O)c3cccc(CC(=O)O)c3oc12 | > 200 | 79.4 | – |
| O=C(OC1CC(OC(=O)c2cc(O)c(O)c(O)c2)(C(=O)O)C[C@H](OC(=O)c2cc(O)c(O)c(O)c2)C1OC(=O)c1cc(O)c(O)c(O)c1)c1cc(O)c(O)c(O)c1 (stereo partly specified) | – | – | inactive |
| O=C1NNC2CCCCC2O1 (stereo unspecified) | > 1150 | > 1150 | – |
| CCC(=O)NC(C(=O)NC(C(=O)NC(CC(C)C)C(O)CC(=O)NC(C)C(=O)NC(CC(C)C)C(O)CC(=O)O)C(C)C)C(C)C (stereo unspecified) | > 7.59 | > 7.59 | – |
| CN1CCC2(CC1)C(C#N)C(=O)NC(=O)C2C#N (stereo unspecified) | > 339 | > 339 | – |
| O=C(Cc1csc2[n+]1C(=O)/C(=C/c1ccc(Cl)cc1)S2)Nc1ccccc1 | > 200 | 30.2 | – |
| CCOC(=O)/C(=C\c1cccc(Cl)c1)C(C)=O | > 141 | 57.5 | – |
| O=c1nc(Oc2c(F)c(F)c(F)c(F)c2F)ccn1C1OC(CO)C(O)C1O (stereo unspecified) | > 200 | 120 | – |
| C/C(=N\O)[C@H]1CC[C@H]2[C@@H]3CC[C@@H]4C/C(=N/O)CC[C@]4(C)[C@H]3[C@@](C)(O)C[C@]12C | > 200 | 26.9 | – |
| CCOC(=O)/C(=C\c1cn(C(C)=O)c2ccccc12)P(C)(=O)OCC (stereo unspecified) | > 200 | 55 | – |
| CN(C)c1ccc(/C=C(\C#N)c2cccc(F)c2)cc1 | > 2 | 0.141 | – |
| O=C(C/C(=N/O)C(F)(F)F)c1cccs1 | > 200 | > 200 | – |
| O=C1C2C3C=CC(C3)C2S(=O)(=O)C2C3C=CC(C3)C12 (stereo unspecified) | > 324 | > 324 | – |
| O=[N+]([O-])c1ccc2c(c1)N([O-])C1(CCCCC1)[N+]2=O | > 200 | 3.98 | – |
| CCC[CH2][Sn]([CH2]CCC)([O]C(=O)CN)[O]C(=O)CN | > 33.9 | 2.45 | – |
